Source: BigSolDB 2.1

solubility (mole fraction) (in n-octanol, 293.15 K) | solubility (mole fraction) (in n-octanol, 298.15 K) | solubility (mole fraction) (in n-octanol, 303.15 K) | solubility (mole fraction) (in n-octanol, 310.15 K) | solubility (mole fraction) (in n-octanol, 315.15 K) | solubility (mole fraction) (in water, 293.15 K) | solubility (mole fraction) (in water, 298.15 K) | solubility (mole fraction) (in water, 303.15 K) | solubility (mole fraction) (in water, 310.15 K) | solubility (mole fraction) (in water, 315.15 K) | solubility (mole fraction) (in n-octanol, 290.15 K) | solubility (mole fraction) (in water, 295.15 K) | Compound
8.97e-05 | 0.000115 | 0.000143 | 0.000192 | 0.000242 | 1.39e-07 | 1.57e-07 | 1.74e-07 | 2.07e-07 | 2.32e-07 | – | – | Cc1cc(N)ccc1S(=O)(=O)Nc1ccccc1Cl
0.00097 | 0.00109 | 0.00118 | 0.00146 | 0.00179 | 2.22e-07 | 2.51e-07 | 2.74e-07 | 3.07e-07 | 3.33e-07 | – | – | Nc1ccc(S(=O)(=O)Nc2cc(Cl)c(Cl)cc2Cl)cc1
0.000491 | 0.000552 | 0.00064 | 0.000801 | 0.000897 | 1.26e-07 | 1.53e-07 | 1.79e-07 | 2.25e-07 | 2.56e-07 | – | – | Cc1ccc(NS(=O)(=O)c2ccc(N)cc2)cc1Cl
0.000152 | 0.000198 | 0.000247 | 0.000345 | 0.000449 | 4.41e-07 | 5.17e-07 | 5.79e-07 | 8.02e-07 | 9.35e-07 | – | – | Cc1cc(N)ccc1S(=O)(=O)Nc1ccccc1[N+](=O)[O-]
– | 0.000412 | 0.000529 | 0.000667 | 0.00089 | 6.12e-07 | 7.25e-07 | 8.98e-07 | 1.03e-06 | 1.24e-06 | 0.000347 | – | Nc1ccc(S(=O)(=O)Nc2cc(Cl)ccc2Cl)cc1
0.00153 | 0.00188 | 0.00221 | 0.00273 | 0.00323 | – | 7.72e-07 | 1.03e-06 | 1.51e-06 | 2.12e-06 | – | 6.16e-07 | Cc1ccc(Cl)cc1NS(=O)(=O)c1ccc(N)cc1
– | 0.00132 | 0.00145 | 0.00153 | 0.00167 | 9.2e-07 | 1.19e-06 | 1.51e-06 | 2.02e-06 | 2.84e-06 | 0.00126 | – | Nc1ccc(S(=O)(=O)Nc2ccc(Cl)cc2)cc1
0.0021 | 0.00248 | 0.00287 | 0.00349 | 0.00391 | 4.05e-07 | 4.72e-07 | 5.62e-07 | 6.86e-07 | 8.12e-07 | – | – | Nc1ccc(S(=O)(=O)Nc2ccc(Cl)cc2)c(Cl)c1
5.85e-05 | 7.4e-05 | 9.37e-05 | 0.000128 | 0.000164 | 1.05e-07 | 1.19e-07 | 1.35e-07 | 1.55e-07 | 1.75e-07 | – | – | Nc1ccc(S(=O)(=O)Nc2ccccc2Cl)c(Cl)c1
– | 0.000356 | 0.000422 | 0.000501 | 0.000617 | 1.67e-07 | 2.05e-07 | 2.48e-07 | 3.26e-07 | 3.89e-07 | 0.000317 | – | Nc1ccc(S(=O)(=O)Nc2ccc(Cl)c(Cl)c2)cc1
0.00133 | 0.00158 | 0.0018 | 0.00221 | 0.00259 | – | 7.65e-07 | 9.36e-07 | 1.18e-06 | 1.45e-06 | – | 7.06e-07 | Cc1ccc(NS(=O)(=O)c2ccc(N)cc2)c(Cl)c1
0.00426 | 0.00489 | 0.00556 | 0.00675 | 0.00786 | 1.25e-06 | 1.61e-06 | 2.11e-06 | 3.08e-06 | 3.74e-06 | – | – | Cc1cc(Cl)ccc1NS(=O)(=O)c1ccc(N)cc1
0.00319 | 0.00356 | 0.00393 | 0.00465 | 0.00519 | 4.79e-07 | 6.71e-07 | 9.04e-07 | 1.35e-06 | 1.68e-06 | – | – | Cc1cc(N)ccc1S(=O)(=O)Nc1ccc(Cl)cc1
